Source: ChEMBL document CHEMBL4765338, “Simple analogues of natural product chelerythrine: Discovery of a novel anticholinesterase 2-phenylisoquinolin-2-ium scaffold with excellent potency against acetylcholinesterase” (Eur J Med Chem, 2020)

Key:
[1] = molecular target: Acetylcholinesterase (Homo sapiens, UniProt P22303)
Description: Inhibition of AChE (unknown origin) preincubated for 30 mins followed by substrate addition acetylthiocholineiodide measured after 40 mins by Ellman's method

[2] = molecular target: Cholinesterase (Homo sapiens, UniProt P06276)
Description: Inhibition of BuChE (unknown origin) preincubated for 30 mins followed by substrate addition acetylthiocholineiodide measured after 40 mins by Ellman's method

[3] = Cytotoxicity against porcine fetal kidney cells incubated for 48 hrs by MTT assay; format: cell-based; conditions: Sus scrofa, Fetal kidney cell
[4] = Cytotoxicity against goat fetal fibroblast cells incubated for 48 hrs by MTT assay; format: cell-based, Fetal fibroblast cell; conditions: Capra hircus
[5] = test system: N2a; assay: Cytotoxicity against mouse N2a cells incubated for 48 hrs by MTT assay; format: cell-based

Sequence of Cholinesterase (P06276 whole entry): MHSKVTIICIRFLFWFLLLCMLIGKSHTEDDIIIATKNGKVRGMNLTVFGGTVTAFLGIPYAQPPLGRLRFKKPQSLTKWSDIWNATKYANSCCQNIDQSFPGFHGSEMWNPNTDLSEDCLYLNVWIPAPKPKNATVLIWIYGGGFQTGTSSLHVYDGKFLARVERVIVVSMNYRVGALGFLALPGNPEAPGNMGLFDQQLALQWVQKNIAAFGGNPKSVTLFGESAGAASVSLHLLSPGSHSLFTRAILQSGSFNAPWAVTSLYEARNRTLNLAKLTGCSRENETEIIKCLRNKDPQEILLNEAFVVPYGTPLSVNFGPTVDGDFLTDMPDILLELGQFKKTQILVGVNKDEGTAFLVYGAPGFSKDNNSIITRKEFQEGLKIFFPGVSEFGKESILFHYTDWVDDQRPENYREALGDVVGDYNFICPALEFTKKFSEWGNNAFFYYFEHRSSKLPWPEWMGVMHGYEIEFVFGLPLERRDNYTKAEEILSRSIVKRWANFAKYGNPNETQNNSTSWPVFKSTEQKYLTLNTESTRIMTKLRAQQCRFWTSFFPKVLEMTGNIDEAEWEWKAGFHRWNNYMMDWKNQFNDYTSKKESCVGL
Sequence of Acetylcholinesterase (P22303 whole entry): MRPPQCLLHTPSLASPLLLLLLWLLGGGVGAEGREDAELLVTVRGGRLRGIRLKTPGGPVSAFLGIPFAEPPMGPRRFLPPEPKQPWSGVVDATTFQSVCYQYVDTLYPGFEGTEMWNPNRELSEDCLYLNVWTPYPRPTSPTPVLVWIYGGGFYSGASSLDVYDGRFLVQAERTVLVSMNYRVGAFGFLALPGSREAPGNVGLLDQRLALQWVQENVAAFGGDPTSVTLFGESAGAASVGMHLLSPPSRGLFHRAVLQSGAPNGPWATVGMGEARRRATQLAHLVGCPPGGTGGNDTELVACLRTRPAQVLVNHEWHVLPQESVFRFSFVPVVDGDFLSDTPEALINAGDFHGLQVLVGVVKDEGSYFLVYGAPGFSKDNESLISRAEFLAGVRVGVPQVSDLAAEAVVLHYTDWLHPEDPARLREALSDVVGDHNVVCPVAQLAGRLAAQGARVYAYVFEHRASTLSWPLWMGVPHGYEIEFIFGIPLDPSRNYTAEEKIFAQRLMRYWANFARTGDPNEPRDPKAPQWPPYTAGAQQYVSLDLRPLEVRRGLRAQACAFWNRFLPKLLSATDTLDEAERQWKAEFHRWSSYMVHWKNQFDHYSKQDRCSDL

Row | SMILES | IC50 [1] [µM] | IC50 [2] [µM] | IC50 [3] [µM] | IC50 [4] [µM] | IC50 [5] [µM]
1 | COc1cccc2c1C=[N+](c1ccccc1Br)CC2 | 1.5 | 27.2 | – | – | –
2 | COc1cccc2c1C=[N+](c1ccccc1C#N)CC2 | > 10 | – | – | – | –
3 | COc1cccc2c1C=[N+](c1ccc(F)cc1)CC2 | 1.99 | 113 | – | – | –
4 | COc1cccc2c1C=[N+](c1cccc(F)c1)CC2 | > 10 | – | – | – | –
5 | COc1cccc2c1C=[N+](c1cccc(I)c1)CC2 | > 10 | – | – | – | –
6 | COc1cccc2c1C=[N+](c1ccccc1C)CC2 | 3.07 | 133 | – | – | –
7 | COc1cccc2c1C=[N+](c1cccc(Cl)c1)CC2 | > 10 | – | – | – | –
8 | COc1cccc2c1C=[N+](c1ccc(I)cc1F)CC2 | 1.06 | 128 | – | – | –
9 | COc1cccc2c1C=[N+](c1ccc(C#N)cc1)CC2 | > 10 | – | – | – | –
10 | COc1cccc([N+]2=Cc3c(cccc3OC)CC2)c1 | 5.23 | 77.3 | – | – | –
11 | COc1cccc2c1C=[N+](c1ccccc1C(F)(F)F)CC2 | > 10 | – | – | – | –
12 | COc1cccc2c1C=[N+](c1ccc(Cl)cc1)CC2 | 0.32 | 62.1 | – | – | –
13 | COc1cccc2c1C=[N+](c1ccc(C(F)(F)F)cc1)CC2 | 1.94 | 221 | – | – | –
14 | COc1cccc2c1C=[N+](c1cccc(Br)c1)CC2 | > 10 | – | – | – | –
15 | COc1cccc2c1C=[N+](c1cccc(C#N)c1)CC2 | 5.13 | 110 | – | – | –
16 | COc1cccc2c1C=[N+](c1ccc(Cl)cc1Cl)CC2 | 1.04 | 90.5 | – | – | –
17 | COc1ccc([N+]2=Cc3c(cccc3OC)CC2)cc1 | 1.04 | 113 | 23.8 | 27.3 | 26.6
18 | COc1cccc2c1C=[N+](c1ccccc1I)CC2 | 1.79 | 28.9 | – | – | –
19 | COc1cccc2c1C=[N+](c1ccc(I)cc1)CC2 | 1.01 | 58.1 | – | – | –
20 | COc1cccc2c1C=[N+](c1ccccc1F)CC2 | 2.94 | 75 | – | – | –
21 | COc1cccc2c1C=[N+](c1cccc(C(F)(F)F)c1)CC2 | > 10 | – | – | – | –
22 | COc1cccc2c1C=[N+](c1cc(Cl)cc(Cl)c1)CC2 | > 10 | – | – | – | –

Row | SMILES | IC50 [1] [µM] | IC50 [2] [µM] | IC50 [3] [µM] | IC50 [4] [µM] | IC50 [5] [µM]
23 | COc1cccc2c1C=[N+](c1ccc(C)cc1)CC2 | 0.53 | 47.1 | – | – | –
24 | COc1cccc2c1C=[N+](c1ccccc1)CC2 | 1.62 | 35.4 | – | – | –
25 | COc1cccc2c1C=[N+](c1ccccc1Cl)CC2 | > 10 | 190 | – | – | –
26 | COc1cccc2c1C=[N+](c1cccc(C)c1)CC2 | 2.89 | 35.9 | – | – | –
27 | COc1cccc2c1C=[N+](c1ccc(Br)cc1F)CC2 | 1.29 | 69.3 | – | – | –
28 | COc1cccc2c1C=[N+](c1c(F)cccc1F)CC2 | 1.29 | 105 | – | – | –
29 | COc1cccc2c1C=[N+](c1ccc(Br)cc1Br)CC2 | 3.72 | 116 | 6.03 | 6.13 | 4.26
30 | COc1cccc2c1C=[N+](c1ccc(Br)cc1)CC2 | 0.28 | 20.7 | 19.2 | 20.6 | 20.3
31 | COc1ccccc1[N+]1=Cc2c(cccc2OC)CC1 | > 10 | – | – | – | –
32 | C[n+]1cc2c3c(ccc2c2ccc4cc5c(cc4c21)OCO5)OCO3 | 1.22 | 7.08 | – | – | –
33 | COc1cccc2cc[n+](-c3ccccc3F)cc12 | 2.55 | 80.9 | – | – | –
34 | COc1cccc2cc[n+](-c3ccc(Br)cc3F)cc12 | 0.9 | 196 | – | – | –
35 | COc1cccc2cc[n+](-c3ccccc3I)cc12 | 2.06 | 36.9 | – | – | –
36 | Brc1ccc([N+]2=Cc3ccccc3CC2)cc1 | 10.5 | 63.7 | – | – | –
37 | COc1cccc2cc[n+](-c3ccc(Cl)cc3)cc12 | 0.17 | 104 | – | – | –
38 | COc1cccc2cc[n+](-c3ccccc3C(F)(F)F)cc12 | > 10 | – | – | – | –
39 | COc1cccc2cc[n+](-c3cccc(I)c3)cc12 | > 10 | – | – | – | –
40 | COc1cccc2cc[n+](-c3cccc(C)c3)cc12 | 2.21 | 30.6 | – | – | –
41 | COc1cccc(-[n+]2ccc3cccc(OC)c3c2)c1 | 6.9 | 98.3 | – | – | –
42 | COc1cccc2cc[n+](-c3cccc(C#N)c3)cc12 | 3.41 | > 250 | – | – | –
43 | COc1ccccc1-[n+]1ccc2cccc(OC)c2c1 | > 10 | – | – | – | –
44 | COc1cccc2cc[n+](-c3ccccc3C#N)cc12 | 1.75 | 59.4 | – | – | –

Row | SMILES | IC50 [1] [µM] | IC50 [2] [µM] | IC50 [3] [µM] | IC50 [4] [µM] | IC50 [5] [µM]
45 | COc1cccc2cc[n+](-c3ccc(Cl)cc3Cl)cc12 | 3.42 | 232 | – | – | –
46 | COc1cccc2cc[n+](-c3ccccc3Cl)cc12 | 5.33 | 67.2 | – | – | –
47 | COc1cccc2cc[n+](-c3c(F)cccc3F)cc12 | 2.7 | 48.4 | – | – | –
48 | COc1cccc2cc[n+](-c3cccc(Cl)c3)cc12 | 9.45 | 36.4 | – | – | –
49 | COc1cccc2cc[n+](-c3ccc(Br)cc3)cc12 | 0.19 | 21.6 | 19.8 | > 50 | 20.8
50 | COc1cccc2cc[n+](-c3ccccc3)cc12 | 1.42 | 80.3 | – | – | –
51 | COc1cccc2cc[n+](-c3ccc(Br)cc3Br)cc12 | 0.57 | 131 | > 50 | > 50 | > 50
52 | COc1cccc2cc[n+](-c3ccc(I)cc3F)cc12 | 1.23 | 89.8 | – | – | –
53 | COc1cccc2cc[n+](-c3cccc(Br)c3)cc12 | > 10 | – | – | – | –
54 | COc1cccc2cc[n+](-c3ccc(I)cc3)cc12 | 0.72 | 36.1 | – | – | –
55 | COc1cccc2cc[n+](-c3cccc(F)c3)cc12 | 9.13 | > 250 | – | – | –
56 | COc1cccc2cc[n+](-c3ccc(C#N)cc3)cc12 | > 10 | – | – | – | –
57 | COc1cccc2cc[n+](-c3ccccc3Br)cc12 | 5.23 | 89.5 | – | – | –
58 | Brc1ccc(-[n+]2ccc3ccccc3c2)cc1 | 2.39 | 130 | – | – | –
59 | COc1cccc2cc[n+](-c3ccc(F)cc3)cc12 | 0.67 | 143 | – | – | –
60 | COc1cccc2cc[n+](-c3cccc(C(F)(F)F)c3)cc12 | > 10 | – | – | – | –
61 | COc1ccc(-[n+]2ccc3cccc(OC)c3c2)cc1 | 0.14 | 3.84 | > 50 | > 50 | > 50
62 | COc1cccc2cc[n+](-c3cc(Cl)cc(Cl)c3)cc12 | > 10 | – | – | – | –
63 | COc1cccc2cc[n+](-c3ccccc3C)cc12 | 2.89 | 243 | – | – | –
64 | COc1cccc2cc[n+](-c3ccc(C(F)(F)F)cc3)cc12 | 0.69 | 33.5 | – | – | –
65 | COc1cccc2cc[n+](-c3ccc(C)cc3)cc12 | 1.08 | > 250 | – | – | –
66 | COc1ccc2c(c[n+](C)c3c4cc5c(cc4ccc23)OCO5)c1OC [CHELERYTHRINE] | 1.45 | 8.58 | – | – | –
